In patent publication US10428134B2, “Immunoglobulins and uses thereof” (JANSSEN PHARMACEUTICA NV, priority 2016, dated 2019):
Marks after values point to notes of the source that are not given here.

Assays:
[1] = Repeat dosing in DIO mice: food intake, body weight, body composition; format: in vivo, mouse; conditions: 0.3 nmol/kg s.c. daily
Method: To control for the dosing frequency, all animals were dosed daily. Dosing frequency was determined on the basis of DIO mouse PK data for compound 2 and dulaglutide. Animals in the dulaglutide group received this drug daily. The vehicle-treated animals received vehicle daily. […] The day prior to initiating of dosing, animals were weighed and grouped by body weight. […].
Beginning 24-hr after the first dosing, three groups of mice were pair-fed (PF) to the 1.0, 2.0, or 4.0 nmol/kg compound 2-treated animals. The amount of food in the hopper of pair-fed mice was adjusted to match the average food consumed in the previous 24 hours by mice in the compound treatment group to which they were being matched. All PF groups were dosed daily with vehicle. On the ninth day (or Day 10 for the pair-fed groups), animals were fasted for 6 hours and body weight and fasting glucose were measured. Blood was collected for measurements of insulin, FGF21 and plasma lipids. The food intake, body weight, body composition, fasting glucose, fasting insulin, fasting FGF21, and fasting plasma lipid data are shown in tables 20-26.

[2] = OGTT after 8 days of treatment in DIO mice (glucose, insulin); format: in vivo, mouse; conditions: 0.3 nmol/kg s.c. every day
Method: (§1) Compound 1 was evaluated for its ability to reduce foot intake and body weight and improve glucose homeostasis on repeat dosing in male DIO C57Bl/6 mice over a period of 8 days. Male DIO C57BL/6N mice (20 weeks of age, 14 weeks on high fat diet) were obtained from Taconic Laboratory. […] Animals were acclimated to the facility for at least one week prior to the start of the experiment.
(§2) The day prior to dosing, mice were grouped based on individual body weights. At 3:00-4:00 pm for each of the next 8 days, animals and food intake were weighed. […] After 8 days, mice are fasted for 5 hours and then given a 2 g/kg bolus of glucose orally at t=0. At t=0, 30, 60, 90, and 120 minutes post glucose challenge blood glucose is measured and at t=0, 30, and 90 minutes blood in drawn to measure plasma insulin. […] All data are presented as the mean±SEM (FIGS. 8 and 9, and Tables 5-8).

cynomolgus monkey GCGR = assay: cynomolgus monkey glucagon receptor cAMP assay; format: cell-based; conditions: HEK293 cells
Method: (§3) For each receptor assay, the clonal cells were seeded into 384-well plates at the appropriate densities ranging from 2000-5000 cells/per well. Compounds were diluted in HBSS supplemented with 5 mM HEPES, 0.1% BSA and 0.5 mM IBMX and added to the cells. […] Standard curves were included in each assay plate for back calculation of cAMP concentrations.

mouse GLP1R = biological target: T1, mouse GLP1R (Mus musculus, UniProt O35659); assay: mouse GLP1 receptor cAMP assay; format: cell-based; conditions: HEK293 cells
T1 construct: expressed in transfected cells
T1 sequence (O35659 22-463): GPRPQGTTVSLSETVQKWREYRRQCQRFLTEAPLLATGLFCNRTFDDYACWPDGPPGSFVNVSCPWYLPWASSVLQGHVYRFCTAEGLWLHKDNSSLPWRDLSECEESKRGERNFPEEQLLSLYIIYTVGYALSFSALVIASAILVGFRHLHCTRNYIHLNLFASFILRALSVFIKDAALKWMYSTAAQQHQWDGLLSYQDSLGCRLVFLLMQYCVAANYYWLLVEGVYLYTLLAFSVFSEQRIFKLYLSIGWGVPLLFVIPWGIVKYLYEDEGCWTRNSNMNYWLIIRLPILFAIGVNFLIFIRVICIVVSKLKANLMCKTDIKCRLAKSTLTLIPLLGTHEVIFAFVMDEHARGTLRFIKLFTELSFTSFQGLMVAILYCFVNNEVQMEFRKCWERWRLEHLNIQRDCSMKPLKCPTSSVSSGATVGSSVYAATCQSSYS
Method: as §3

mouse GCGR = biological target: T2, mouse GCGR (Mus musculus, UniProt Q61606); assay: mouse glucagon receptor cAMP assay; format: cell-based; conditions: HEK293 cells
T2 construct: expressed in transfected cells
T2 sequence (Q61606 27-485): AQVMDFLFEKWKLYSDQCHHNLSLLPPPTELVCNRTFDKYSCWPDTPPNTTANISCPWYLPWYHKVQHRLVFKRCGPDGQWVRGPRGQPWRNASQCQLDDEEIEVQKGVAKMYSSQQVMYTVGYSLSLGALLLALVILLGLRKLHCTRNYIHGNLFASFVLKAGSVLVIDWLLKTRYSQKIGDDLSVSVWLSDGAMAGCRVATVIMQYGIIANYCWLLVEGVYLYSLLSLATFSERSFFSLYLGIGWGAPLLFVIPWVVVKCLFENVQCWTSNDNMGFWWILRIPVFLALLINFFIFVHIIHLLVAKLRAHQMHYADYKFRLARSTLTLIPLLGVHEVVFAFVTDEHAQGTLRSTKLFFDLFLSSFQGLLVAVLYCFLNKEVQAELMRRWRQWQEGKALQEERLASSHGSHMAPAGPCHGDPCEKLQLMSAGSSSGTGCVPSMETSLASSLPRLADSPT
Method: as §3

[3] = Single-dose efficacy in DIO mice: food intake, body weight
human GCGR = biological target: T3, human GCGR (Homo sapiens, UniProt P47871); assay: human glucagon receptor cAMP assay; format: cell-based; conditions: HEK293 cells
T3 construct: expressed in transfected cells
T3 sequence (P47871 26-477): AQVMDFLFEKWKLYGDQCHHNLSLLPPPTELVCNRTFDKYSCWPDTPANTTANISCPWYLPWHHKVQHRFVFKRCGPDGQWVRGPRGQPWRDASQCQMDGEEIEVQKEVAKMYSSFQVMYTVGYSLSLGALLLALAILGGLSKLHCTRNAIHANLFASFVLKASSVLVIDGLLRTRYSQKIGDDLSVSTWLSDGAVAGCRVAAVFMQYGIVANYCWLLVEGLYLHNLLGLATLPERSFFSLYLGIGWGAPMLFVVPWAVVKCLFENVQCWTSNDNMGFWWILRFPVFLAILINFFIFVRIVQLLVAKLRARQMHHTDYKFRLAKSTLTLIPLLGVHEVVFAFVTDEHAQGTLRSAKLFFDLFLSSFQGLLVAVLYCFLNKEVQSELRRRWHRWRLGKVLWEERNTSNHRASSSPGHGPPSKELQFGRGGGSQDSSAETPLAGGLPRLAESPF
Method: as §3

[4] = Weight loss in DIO mice, chronic dosing: body weight; format: in vivo, mouse; conditions: 0.3 nmol/kg s.c. every day
Method: as §1, §2

[5] = Fed blood glucose after 8 days of treatment in DIO mice; format: in vivo, mouse; conditions: 0.3 nmol/kg s.c. every day
Method: as §1, §2

rat GCGR = biological target: T4, rat GCGR (Rattus norvegicus, UniProt P30082); assay: rat glucagon receptor cAMP assay; format: cell-based; conditions: HEK293 cells
T4 construct: expressed in transfected cells
T4 sequence (P30082 27-485): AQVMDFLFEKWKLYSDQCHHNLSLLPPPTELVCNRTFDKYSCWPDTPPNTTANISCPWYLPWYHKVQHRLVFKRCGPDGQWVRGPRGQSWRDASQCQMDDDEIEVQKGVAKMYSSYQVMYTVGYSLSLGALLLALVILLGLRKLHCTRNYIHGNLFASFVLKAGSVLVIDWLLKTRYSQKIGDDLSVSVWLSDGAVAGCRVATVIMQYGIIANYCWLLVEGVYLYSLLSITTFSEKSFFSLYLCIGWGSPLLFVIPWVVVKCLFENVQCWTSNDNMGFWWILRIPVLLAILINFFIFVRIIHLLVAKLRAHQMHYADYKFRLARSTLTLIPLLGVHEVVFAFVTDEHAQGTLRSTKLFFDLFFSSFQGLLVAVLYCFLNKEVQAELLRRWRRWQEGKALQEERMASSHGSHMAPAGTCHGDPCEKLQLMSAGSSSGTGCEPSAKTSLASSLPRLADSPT
Method: as §3

[6] = Single-dose efficacy in DIO mice: IPGTT, fasting glucose, insulin; conditions: 0.3 nmol/kg s.c.
[7] = Single-dose efficacy in DIO mice: plasma FGF21; conditions: 0.3 nmol/kg s.c., 26 hours after treatment

## Dulaglutide: the GLP1R agonist, dulaglutide [reference compound]
[1]; after repeated dosing
  body composition: Fat % of Body Weight: 22.8 ± 1.2%
  body composition: Fat Mass: 7.6 ± 1.1 g
  body composition: Lean % of Body Weight: 61.0 ± 1.7%
  body composition: Lean Mass: 22.1 ± 0.3 g
[1]; day 0
  daily food intake: 3.1 ± 0.2 grams
  percent body weight change: 0.0%
[1]; day 1
  daily food intake: 1.5 ± 0.2 grams
  percent body weight change: −3.7 ± 0.3%
[1]; day 2
  daily food intake: 1.3 ± 0.2 grams
  percent body weight change: −6.2 ± 0.6%
[1]; day 3
  daily food intake: 1.7 ± 0.3 grams
  percent body weight change: −7.8 ± 0.8%
[1]; day 4
  daily food intake: 1.9 ± 0.2 grams
  percent body weight change: −9.2 ± 0.8%
[1]; day 5
  daily food intake: 2.1 ± 0.2 grams
  percent body weight change: −10.1 ± 0.8%
[1]; day 6
  daily food intake: 2.2 ± 0.2 grams
  percent body weight change: −10.2 ± 0.8%
[1]; day 7
  daily food intake: 2.3 ± 0.2 grams
  percent body weight change: −10.7 ± 1.0%
[1]; day 8
  daily food intake: 2.9 ± 0.4 grams
  percent body weight change: −11.1 ± 0.9%
[1]; day 9
  daily food intake: 2.5 ± 0.2 grams
  percent body weight change: −13.1 ± 1.1%
[2]
  blood glucose Delta AUC (OGTT): 6668 ± 1846 mg/dl/120 min
  blood glucose Total AUC (OGTT): 15758 ± 1054 mg/dl/120 min
[2]; 0 min after glucose challenge
  blood glucose during OGTT: 76 ± 9 mg/dL
  insulin during OGTT: 0.6 ± 0.1 ng/mL
[2]; 30 min after glucose challenge
  blood glucose during OGTT: 151 ± 14 mg/dL
  insulin during OGTT: 1.7 ± 0.2 ng/mL
[2]; 60 min after glucose challenge
  blood glucose during OGTT: 174 ± 17 mg/dL
[2]; 90 min after glucose challenge
  blood glucose during OGTT: 104 ± 10 mg/dL
  insulin during OGTT: 0.7 ± 0.2 ng/mL
[2]; 120 min after glucose challenge
  blood glucose during OGTT: 119 ± 9 mg/dL
Cynomolgus monkey GCGR
  EC50: > 100 nM
Mouse GLP1R
  EC50: 0.035 ± 0.002 nM
Mouse GCGR
  EC50: > 100 nM
[3]; 0.3 nmol/kg group, 24 hours pre-dose
  food intake: 3.1 ± 0.1 grams
[3]; single s.c. dose 0.3 nmol/kg, 18 hours after treatment
  Weight Change: −4.1 ± 0.3 %
[3]; single s.c. dose 0.3 nmol/kg, 18 hours post-dose
  food intake: 1.5 ± 0.1*^ grams
Human GCGR
  EC50: > 100 nM
[4]; day 0
  body weight: 45.9 ± 0.6 g
[4]; day 1
  body weight: 44.1 ± 0.6 g
[4]; day 2
  body weight: 42.2 ± 0.6 g
[4]; day 3
  body weight: 40.6 ± 0.6 g
[4]; day 4
  body weight: 39.3 ± 0.6 g
[4]; day 5
  body weight: 38.1 ± 0.7 g
[4]; day 6
  body weight: 37.1 ± 0.8 g
[4]; day 7
  body weight: 36.4 ± 1.0 g
[4]; day 8
  body weight: 36.5 ± 1.1 g
[4]; day −1
  body weight: 46.3 ± 0.6 g
[5]
  fed Blood Glucose: 114 ± 13 mg/dL
Rat GCGR
  EC50: > 100 nM
[6]; 10 minutes post-glucose (IPGTT)
  Plasma Insulin: 1.7 ± 0.2 ng/mL
[6]; 24 hours after treatment
  6 hour fasting Blood Glucose: 140 ± 7 mg/dL
  Blood Glucose Net AUC (IPGTT): 8471 ± 1204
[6]; 24 hours after treatment, 0 min
  blood glucose during IPGTT: 140 ± 7 mg/dL
[6]; 24 hours after treatment, 10 min
  blood glucose during IPGTT: 264 ± 18 mg/dL
[6]; 24 hours after treatment, 30 min
  blood glucose during IPGTT: 267 ± 22 mg/dL
[6]; 24 hours after treatment, 60 min
  blood glucose during IPGTT: 228 ± 12 mg/dL
[6]; 24 hours after treatment, 90 min
  blood glucose during IPGTT: 193 ± 9 mg/dL
[6]; Pre-glucose (24 hours after treatment)
  Plasma Insulin: 1.6 ± 0.2 ng/mL
[7]
  Plasma FGF21: 0.8 ± 0.2 ng/mL
